These results are taken from patent publication US6515122B1, “Tetracyclic benzimidazole derivatives and combinatorial libraries thereof” (Lion Bioscience AG, priority 1999, dated 2003).

Molecules are shown by their SMILES.

In the experiment the test system is Streptococcus pyogenes (ATCC# 97-03 14289). The experiment can be described thus: Anti-microbial screen (growth inhibition, OD 570 nm). Format: cell-based. The following applies: ATCC97, compounds at 170 μg/ml, Todd Hewitt Broth, read at 4 hrs. The method, then: Streptococcus pyogenes (ATCC# 97-03 14289) were grown in Todd Hewitt Broth (THB) (Difco Laboratories #0492-17-6) overnight until they reached an optical density of (OD=0.636@ 570 nm) by reading 0.1 ml in a 96 well microtiter plate in a Molecular Devices Thermomax. This preparation was kept frozen as stocks in 30% v/v glycerol in 1.5 ml aliquots at −70 C° until used. Prior to screening, 1.5 ml aliquots were thawed and diluted into 50 ml THB. 200 μl of this dilution was added to 92 wells of microtiter plate. To three wells THB (200 μl) was added to serve as a blank and a sterility control. Test compounds in DMSO and appropriate concentrations of DMSO were added to Growth/Solvent Controls at 0 time. Plates were read at 0 time at 570 nm in the Molecular Devices plate reader to obtain compounds correction factors for insoluble or colored compounds. Plates were read again at 4 hrs.
Compounds were assayed at a concentration of 170 μg/ml. Percent inhibition for each compound was calculated using the following formulae:
Color correct=(O.D. 0 hr−Blank 0 hr)−(Solvent Control 0 hr−Blank 0 hr)
% Inhibition=100−(O.D. test compound 4 hr−Blank 4 hr−color correct) divided by (O.D. growth/solvent control 4 hr−Blank 4 hr)
As for `CCOC(=O)N1CCN(C(=O)c2ccc3c(c2)nc2n3C(CCCNC(=N)N)C(=O)Nc3ccc(Sc4ccccn4)cc3-2)CC1` (stereo not shown) [6000#59425], testing at 170 µg/mL gave an inhibition of 96.8%.

`CCN1CCCC1CNc1ccc2c(c1)-c1nc3cc(C(F)(F)F)ccc3n1C(CCCCNC(=O)C(F)(F)F)C(=O)N2` (stereo not shown) [6000#56957] showed an inhibition at 170 µg/mL of 97.4%.

In turn, `N=C(N)NCCCC1C(=O)Nc2ccc(N3CCOCC3)cc2-c2nc3cc(Br)ccc3n21` (stereo not shown) [6000#60794] registered an inhibition at 170 µg/mL of 97.3%.

Compound `CCCCNc1ccc2c(c1)-c1nc3cc(C(=O)NCCO)ccc3n1C(CCCNC(=N)N)C(=O)N2` (stereo not shown) [6000#58223] showed an inhibition at 170 µg/mL of 97%.

In turn, `CCOC(=O)C1CCCN(C(=O)c2ccc3c(c2)nc2n3C(CCCNC(=N)N)C(=O)Nc3ccc(N4CCCC(C(=O)OCC)C4)cc3-2)C1` (stereo not shown) [6000#58437] showed an inhibition at 170 µg/mL of 100%.

Regarding `CCN1CCCC1CNC(=O)c1ccc2c(c1)nc1n2CC(=O)Nc2ccc(NCCCN3CCOCC3)cc2-1` (stereo not shown) [6000#00010], 170 µg/mL produced 95.7% inhibition.

`CCN1CCCC1CNC(=O)c1ccc2c(c1)nc1n2CC(=O)Nc2ccc(NCCN(C)C)cc2-1` (stereo not shown) [6000#00007] showed an inhibition at 170 µg/mL of 95.2%.
